{"source": "patent US9669051B2", "about": "“Dietary fiber compositions with metformin, sitagliptin, or a combination thereof for the treatment of metabolic disease” (Inovobiologic Inc., priority 2012, dated 2017)", "key": {"Zucker FA/FA Rat Model [1]": {"system": "Zucker FA/FA Rat Model", "experiment": "Example 7: hemoglobin glycosylation (HbA1c)", "format": "in vivo", "quoted_text": "The extent of hemoglobin glycosylation was determined using a clinical analyzer (e.g., Bayer DCA2000). Blood samples for analysis were collected via tail nick."}, "Zucker FA/FA Rat Model [2]": {"system": "Zucker FA/FA Rat Model", "experiment": "Example 7: fasted oral glucose tolerance test (OGTT), glucose and serum insulin", "format": "in vivo", "conditions": "week 6, 16 h fasted", "description": "The remainder of the sample was allowed to clot, and centrifuged to separate serum. Serum samples were frozen for insulin analysis."}, "Zucker FA/FA Rat Model [3]": {"system": "Zucker FA/FA Rat Model", "experiment": "Example 7: clinical chemistry of terminal blood sample", "format": "in vivo", "procedure": "(§1) A blood sample was collected via retroorbital bleed (under isoflurane anesthesia) during the takedown phase. A portion of this sample was tested for lipid concentrations (total, LDL, and HDL cholesterol and triglycerides) using an analyzer (e.g., Polymer Technology Systems CardioChek PA). Plasma was separated by centrifugation and flash-frozen for DPPIV activity determination. The remainder was prepared for comprehensive clinical chemistry analysis."}, "Zucker FA/FA Rat Model [4]": {"system": "Zucker FA/FA Rat Model", "experiment": "Example 7: body composition by dual-energy X-ray absorptiometry (DEXA)", "format": "in vivo", "procedure": "Body composition was measured using dual-energy X-ray absorptiometry (DEXA) of the carcasses at the end of the study (i.e., after a limited necropsy for histopathology samples). The primary endpoints were fat mass, lean mass and bone mineral density. Tissue composition (i.e., % body fat) and fat free mass were also reported, but the information on these measurements was redundant with other measures."}, "Zucker FA/FA Rat Model [5]": {"system": "Zucker FA/FA Rat Model", "experiment": "Example 7: lipid determinations", "format": "in vivo", "conditions": "finding in words, with reference to the cellulose control; listed as JANUVIA alone", "procedure": "as §1"}, "Zucker FA/FA Rat Model [6]": {"system": "Zucker FA/FA Rat Model", "experiment": "Example 7: non-fasted and 16 h fasted blood glucose", "format": "in vivo", "quoted_text": "Glucose concentrations were determined using a hand-held glucose meter (e.g., Bayer Asencia Elite). Blood was collected via tail nick following sitagliptin administration; one sample was collected when food was available for the previous 24 hours (non-fasted), and one sample was collected on another day when food was not available overnight (16 h fasted)."}, "Zucker FA/FA Rat Model [7]": {"system": "Zucker FA/FA Rat Model", "experiment": "Example 7: body weight and food consumption", "format": "in vivo", "procedure": "44 young adult (9 week old) male rats (Zucker ZDF/Crl-Lepr^fa/fa), were obtained from Charles River Laboratories, Kingston, N.Y. […] The rats were housed in cages which conformed to size standards in Guide for the Care and Use of Laboratory Animals (Nat'l Res. Council, 1996). Bedding was changed at least twice per week. The animals were maintained at a temperature range of 18-22° C., humidity 44-68%, and a photoperiod of 12 hour light/dark cycle. The rats were acclimated for 4 days prior to the start of the study. Each animal was given a sequential number and was uniquely identified with a stainless steel ear tag or other appropriate, permanent method. Morbidity and mortality checks were carried out twice daily during the study. The animals were randomly assigned to one of four groups: (1) Control 5% cellulose fiber/chow [C]; (2) 5% PGX/chow [PGX]; […] Filtered tap water was available ad libitum. The test diets were nearly isoenergetic (PGX diet provided 3.98 kcal/g and cellulose diet provided 3.90 kcal/g). […] Sitagliptin was administered in the morning, with samples and data collected after treatment."}, "Zucker FA/FA Rat Model [8]": {"system": "Zucker FA/FA Rat Model", "experiment": "Example 7: necropsy histopathology of liver, kidney and pancreas", "format": "in vivo", "conditions": "week 7 necropsy", "procedure": "Rats were fasted overnight and given their regular sitagliptin treatment in the morning. Following the in-life procedures, rats were anesthetized with isoflurane, and a blood sample was collected via cardiac puncture. No peptidase inhibitors were used. Following sample collection, a limited necropsy was performed. A section of ileum (approximately one inch, collected one inch rostral to the cecum) was rinsed in chilled saline and flash frozen; this sample was analyzed for DPPIV mRNA. One kidney was flash-frozen for DPPIV mRNA analysis; one liver lobe was flash frozen for DPPIV activity and mRNA analysis. The pancreas (collected as a pancreatic pluck, with associated tissue including the remainder of the intestine), one liver lobe and one kidney were post-fixed for staining with hematoxylin and eosin. One liver lobe was snap-frozen for staining with Sudan Black. The tissue samples were forwarded to Histo-Scientific Research Laboratories Inc. (Mount Jackson, Va.) for histological processing and for pathological evaluation by a board-certified pathologist. The pathology analysis was based on the gross and microscopic evaluation of the liver (two lobes), right kidney and pancreas from 39 male rats."}, "[9]": {"conditions": "in words; cited from earlier work"}, "[10]": {"conditions": "finding in words, with reference to the cellulose control"}, "[11]": {"conditions": "finding in words, with reference to the cellulose control, listed as JANUVIA alone"}}}
{"smiles": "N[C@@H](CC(=O)N1CCn2c(nnc2C(F)(F)F)C1)Cc1cc(F)c(F)cc1F", "note": "[Cellulose-JANUVIA, (R)-4-oxo-4-[3-(trifluoromethyl)-5,6-dihydro[1,2,4]triazolo[4,3-a]pyrazin-7(8H)-yl]-1-(2,4,5-trifluorophenyl)butan-2-amine]", "values": [{"measurement": "Hemoglobin glycosylation", "setting": "Zucker FA/FA Rat Model [1]; Baseline", "value": "4.4 ± 0.1", "unit": "%"}, {"measurement": "Hemoglobin glycosylation", "setting": "Zucker FA/FA Rat Model [1]; Week 6", "value": "6.8 ± 0.4", "unit": "%"}, {"measurement": "OGTT serum insulin Baseline", "setting": "Zucker FA/FA Rat Model [2]; before glucose", "value": "6.6 ± 1.1", "unit": "ng/mL"}, {"measurement": "OGTT blood glucose Baseline", "setting": "Zucker FA/FA Rat Model [2]; before glucose 1 g/kg PO", "value": "331 ± 16.4", "unit": "mg/dL"}, {"measurement": "OGTT serum insulin AUC(0-120), baseline-subt", "setting": "Zucker FA/FA Rat Model [2]; glucose 1 g/kg PO", "value": "-3.0 ± 22.7", "unit": "ng·h/dL"}, {"measurement": "Serum ALT/SGPT (terminal)", "setting": "Zucker FA/FA Rat Model [3]; [10]", "value": "tended to decrease ALT activity"}, {"measurement": "Serum albumin (terminal)", "setting": "Zucker FA/FA Rat Model [3]; [10]", "value": "did not increase albumin concentrations"}, {"measurement": "Serum alkaline phosphatase (terminal)", "setting": "Zucker FA/FA Rat Model [3]; [10]", "value": "significantly reduced alkaline phosphatase activity"}, {"measurement": "total serum protein (terminal)", "setting": "Zucker FA/FA Rat Model [3]; [10]", "value": "did not increase total protein concentrations"}, {"measurement": "blood urea nitrogen (terminal)", "setting": "Zucker FA/FA Rat Model [3]; [11]", "value": "tended to decrease BUN"}, {"measurement": "Calcium", "setting": "Zucker FA/FA Rat Model [3]; terminal blood sample, week 7", "value": "11.2 ± 0.2", "unit": "mg/dL"}, {"measurement": "Creatine kinase", "setting": "Zucker FA/FA Rat Model [3]; terminal blood sample, week 7", "value": "76.3 ± 12.8", "unit": "IU/L"}, {"measurement": "Phosphorus", "setting": "Zucker FA/FA Rat Model [3]; terminal blood sample, week 7", "value": "6.0 ± 0.2", "unit": "mg/dL"}, {"measurement": "Fat free mass", "setting": "Zucker FA/FA Rat Model [4]; DEXA at end of study", "value": "133.0 ± 5.6", "unit": "g"}, {"measurement": "Tissue composition (% fat)", "setting": "Zucker FA/FA Rat Model [4]; DEXA at end of study", "value": "63.3 ± 0.9", "unit": "% fat"}, {"measurement": "Lean Mass (terminal)", "setting": "Zucker FA/FA Rat Model [4]; [11]", "value": "did not show an effect on lean body mass"}, {"measurement": "total cholesterol (week 7)", "setting": "Zucker FA/FA Rat Model [5]", "value": "not effective to lower blood cholesterol"}, {"measurement": "16 h fasted blood glucose", "setting": "Zucker FA/FA Rat Model [6]; Baseline", "value": "98.4 ± 5.4", "unit": "mg/dL"}, {"measurement": "Non-fasted blood glucose", "setting": "Zucker FA/FA Rat Model [6]; Baseline", "value": "231.8 ± 31.2", "unit": "mg/dL"}, {"measurement": "16 h fasted blood glucose", "setting": "Zucker FA/FA Rat Model [6]; Week 6", "value": "331.1 ± 16.4", "unit": "mg/dL"}, {"measurement": "Non-fasted blood glucose", "setting": "Zucker FA/FA Rat Model [6]; Week 6", "value": "500.9 ± 17.4", "unit": "mg/dL"}, {"measurement": "Baseline body weight", "setting": "Zucker FA/FA Rat Model [7]; Baseline", "value": "297.9 ± 3.7", "unit": "g"}, {"measurement": "Mean food consumption", "setting": "Zucker FA/FA Rat Model [7]; averaged for each rat over the study", "value": "22.9 ± 0.7", "unit": "g/day"}, {"measurement": "Week 7 body weight", "setting": "Zucker FA/FA Rat Model [7]; week 7", "value": "411.0 ± 16.1", "unit": "g"}, {"measurement": "Kidney: degeneration/regeneration, tubules, group incidence", "setting": "Zucker FA/FA Rat Model [8]; animals affected/examined", "value": "9/9"}, {"measurement": "Kidney: dilatation, tubules, group incidence", "setting": "Zucker FA/FA Rat Model [8]; animals affected/examined", "value": "9/9"}, {"measurement": "Kidney: dilation, renal pelvis, group incidence", "setting": "Zucker FA/FA Rat Model [8]; animals affected/examined", "value": "9/9"}, {"measurement": "Kidney: inflammation, renal pelvis, group incidence", "setting": "Zucker FA/FA Rat Model [8]; animals affected/examined", "value": "2/9"}, {"measurement": "Kidney: mesangial expansion, group incidence", "setting": "Zucker FA/FA Rat Model [8]; animals affected/examined", "value": "9/9"}, {"measurement": "Kidney: mineralization, renal pelvis, group incidence", "setting": "Zucker FA/FA Rat Model [8]; animals affected/examined", "value": "2/9"}, {"measurement": "Liver: Sudan black positive hepatocytes, group incidence", "setting": "Zucker FA/FA Rat Model [8]; animals affected/examined", "value": "9/9"}, {"measurement": "Liver: cystic hepatocytes degeneration with fibrosis, group incidence", "setting": "Zucker FA/FA Rat Model [8]; animals affected/examined", "value": "1/9"}, {"measurement": "Liver: hepatic focal infarction, group incidence", "setting": "Zucker FA/FA Rat Model [8]; animals affected/examined", "value": "1/9"}, {"measurement": "Liver: vacuolation, hepatocytes, macrovesicular, group incidence", "setting": "Zucker FA/FA Rat Model [8]; animals affected/examined", "value": "7/9"}, {"measurement": "Liver: vacuolation, hepatocytes, microvesicular, group incidence", "setting": "Zucker FA/FA Rat Model [8]; animals affected/examined", "value": "9/9"}, {"measurement": "Pancreas: fibrosis, islets, group incidence", "setting": "Zucker FA/FA Rat Model [8]; animals affected/examined", "value": "9/9"}, {"measurement": "Pancreas: hemorrhage/hemosiderin, islets, group incidence", "setting": "Zucker FA/FA Rat Model [8]; animals affected/examined", "value": "9/9"}, {"measurement": "Pancreas: hypertrophy, islets, group incidence", "setting": "Zucker FA/FA Rat Model [8]; animals affected/examined", "value": "9/9"}, {"measurement": "Pancreas: islet cell degeneration, group incidence", "setting": "Zucker FA/FA Rat Model [8]; animals affected/examined", "value": "9/9"}, {"measurement": "Pancreas: mononuclear cell infiltrate, islets, group incidence", "setting": "Zucker FA/FA Rat Model [8]; animals affected/examined", "value": "9/9"}, {"measurement": "Pancreas: percent of islet area containing positive insulin positive cells", "setting": "Zucker FA/FA Rat Model [8]; group average", "value": 40, "unit": "%"}, {"measurement": "Liver: Sudan black positive hepatocytes, group average score", "setting": "Zucker FA/FA Rat Model [8]; score 0-5", "value": 2.8}, {"measurement": "Kidney: degeneration/regeneration, tubules, group average score", "setting": "Zucker FA/FA Rat Model [8]; severity score 0-5", "value": 2.3}, {"measurement": "Kidney: dilatation, tubules, group average score", "setting": "Zucker FA/FA Rat Model [8]; severity score 0-5", "value": 2.8}, {"measurement": "Kidney: dilation, renal pelvis, group average score", "setting": "Zucker FA/FA Rat Model [8]; severity score 0-5", "value": 2.3}, {"measurement": "Kidney: inflammation, renal pelvis, group average score", "setting": "Zucker FA/FA Rat Model [8]; severity score 0-5", "value": 0.8}, {"measurement": "Kidney: mesangial expansion, group average score", "setting": "Zucker FA/FA Rat Model [8]; severity score 0-5", "value": 2.1}, {"measurement": "Kidney: mineralization, renal pelvis, group average score", "setting": "Zucker FA/FA Rat Model [8]; severity score 0-5", "value": 0.2}, {"measurement": "Liver: cystic hepatocytes degeneration with fibrosis, group average score", "setting": "Zucker FA/FA Rat Model [8]; severity score 0-5", "value": 0.1}, {"measurement": "Liver: hepatic focal infarction, group average score", "setting": "Zucker FA/FA Rat Model [8]; severity score 0-5", "value": 0.2}, {"measurement": "Liver: vacuolation, hepatocytes, macrovesicular, group average score", "setting": "Zucker FA/FA Rat Model [8]; severity score 0-5", "value": 0.9}, {"measurement": "Liver: vacuolation, hepatocytes, microvesicular, group average score", "setting": "Zucker FA/FA Rat Model [8]; severity score 0-5", "value": 2.6}, {"measurement": "Pancreas: fibrosis, islets, group average score", "setting": "Zucker FA/FA Rat Model [8]; severity score 0-5", "value": 2.1}, {"measurement": "Pancreas: hemorrhage/hemosiderin, islets, group average score", "setting": "Zucker FA/FA Rat Model [8]; severity score 0-5", "value": 1.1}, {"measurement": "Pancreas: hypertrophy, islets, group average score", "setting": "Zucker FA/FA Rat Model [8]; severity score 0-5", "value": 3.8}, {"measurement": "Pancreas: islet cell degeneration, group average score", "setting": "Zucker FA/FA Rat Model [8]; severity score 0-5", "value": 1.4}, {"measurement": "Pancreas: mononuclear cell infiltrate, islets, group average score", "setting": "Zucker FA/FA Rat Model [8]; severity score 0-5", "value": 1.0}]}
{"smiles": "N[C@@H](CC(=O)N1CCn2c(nnc2C(F)(F)F)C1)Cc1cc(F)c(F)cc1F", "note": "[Sitagliptin phosphate monohydrate, 7-[(3R)-3-amino-1-oxo-4-(2,4,5-trifluorophenyl)buty]-5,6,7,8-tetrahydro-3-(trifluoromethyl)-1,2,4-triazolo[4,3-a]pyrazine phosphate (1:1) monohydrate]", "values": [{"measurement": "Solubility in water", "setting": "[9]", "value": "soluble in water"}]}
